According to patent US9453014B2, “Cyclic amide derivatives as inhibitors of 11-β-hydroxysteroid dehydrogenase and uses thereof” (CONNEXIOS LIFE SCIENCES PVT. LTD., priority 2011, dated 2016):

These molecules were tested against T1, human full length HSD11 β 1 (Homo sapiens, UniProt P28845) (assay: In Vitro HSD11β1 Inhibition Assay). Conditions: CHO cells transiently expressing human HSD11β1; 200 nM cortisone+500 uM NADPH overnight; cortisone to cortisol by LC/MS-MS; read-out: 11βHSD1 (IC50).
T1 construct: transient expression of human full length HSD11 β 1 expression vector; host or cells: CHO cells (transient transfection)
Type: cell-based
How it was run: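 CHO cells transiently transfected with human full-length HSD11β1 were re-seeded after 24 h and, 24 h later, incubated overnight with 200 nM cortisone plus 500 uM NADPH and inhibitor. Cortisone-to-cortisol conversion was measured by LC/MS-MS. IC50 from an 8-point log concentration–inhibition curve.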

T1 sequence (P28845 whole entry): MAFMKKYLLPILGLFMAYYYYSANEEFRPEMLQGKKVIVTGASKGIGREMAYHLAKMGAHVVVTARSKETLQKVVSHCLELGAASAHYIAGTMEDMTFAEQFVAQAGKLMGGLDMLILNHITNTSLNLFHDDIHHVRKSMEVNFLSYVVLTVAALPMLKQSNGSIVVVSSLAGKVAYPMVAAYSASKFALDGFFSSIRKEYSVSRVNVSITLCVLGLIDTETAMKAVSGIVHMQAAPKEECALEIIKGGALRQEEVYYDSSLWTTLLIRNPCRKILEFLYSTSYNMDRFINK

`Cc1cccc2c1c(CCC(=O)N1CC(C)(C)OC3CCCCC31)cn2C` (centres unmarked) [Compound 70, 3-(1,4-dimethyl-1H-indol-3-yl)-1-(2,2-dimethyloctahydro-4H-1,4-benzoxazin-4-yl)propan-1-one] and `Cc1cccc2c1c(C(C)CC(=O)N1CCCC3C(C(=O)O)CCCC31)cn2C` (centres unmarked) [Compound 207, 1-[3-(1,4-dimethyl-1H-indol-3-yl)butanoyl]decahydroquinoline-5-carboxylic acid] cannot be ordered by IC50: greater than 250 nM for the first, greater than 250 nM for the second.

First: Cn1cc(C(C)(C)CC(=O)N2CCOC3CCCCC32)c2ccccc21 (centres unmarked) [Compound 71, 3-methyl-3-(1-methyl-1H-indol-3-yl)-1-(octahydro-4H-1,4-benzoxazin-4-yl)butan-1-one]
Second: O=C(CCc1c[nH]c2cccc(F)c12)N1CCOC2CCCCC21 (centres unmarked) [Compound 72, 3-(4-fluoro-1H-indol-3-yl)-1-(octahydro-4H-1,4-benzoxazin-4-yl)propan-1-one]
The IC50 of the first is higher: 150 to 200 nM for the first, less than 100 nM for the second.

`O=C(CSc1nc2ccccc2s1)N1CCCC2CCCCC21` (centres unmarked) [Compound 73, 2-(1,3-benzothiazol-2-ylsulfanyl)-1-(octahydroquinolin-1(2H)-yl)ethanone] and `CC(CC(=O)N1CCCC2CCCCC21)c1c[nH]c2cccc(N3CCC(C(=O)O)CC3)c12` (centres unmarked) [Compound 202, 1-{3-[4-(octahydroquinolin-1(2H)-yl)-4-oxobutan-2-yl]-1H-indol-4-yl}piperidine-4-carboxylic acid] cannot be ordered by IC50: greater than 250 nM for the first, greater than 250 nM for the second.

`CC(CC(=O)N1CCC(CC(=O)O)C2CCCCC21)c1c[nH]c2cccc(C3CC3)c12` (centres unmarked) [Compound 189, (1-[3-(4-cyclopropyl-1H-indol-3-yl)butanoyl]decahydroquinolin-4-yl)acetic acid] and `CC(CC(=O)N1CCC(C(=O)O)C2CCCCC21)c1c[nH]c2cccc(C3CC3)c12` (centres unmarked) [Compound 194, 1-[3-(4-cyclopropyl-1H-indol-3-yl)butanoyl]decahydroquinoline-4-carboxylic acid] cannot be ordered by IC50: greater than 250 nM for the first, greater than 250 nM for the second.

`CC(CC(=O)N1CCCC2C(C(=O)O)CCCC21)c1c[nH]c2cccc(C3CC3)c12` (centres unmarked) [Compound 190, 1-[3-(4-cyclopropyl-1H-Indol-3-yl)butanoyl]decahydroquinoline-5-carboxylic acid] and `CC(CC(=O)N1CCCC2C(C(=O)O)CCCC21)c1c[nH]c2ccc(F)c(C3CC3)c12` (centres unmarked) [Compound 220, 1-[3-(4-cyclopropyl-5-fluoro-1H-indol-3-yl)butanoyl]decahydroquinoline-5-carboxylic acid] cannot be ordered by IC50: less than 100 nM for the first, less than 100 nM for the second.

`CC(CC(=O)N1CCCC2CC(C(=O)O)CCC21)c1c[nH]c2cccc(C3CC3)c12` (centres unmarked) [Compound 191, 1-[3-(4-cyclopropyl-1H-Indol-3-yl)butanoyl]decahydroquinoline-6-carboxylic acid] and `CC(CC(=O)N1CCCC2C(C(=O)O)CCCC21)c1c[nH]c2cccc(Cl)c12` (centres unmarked) [Compound 193, 1-[3-(4-chloro-1H-indol-3-yl)butanoyl]decahydroquinoline-5-carboxylic acid] fall in the same range of IC50: 100 to 150 nM for the first, 100 to 150 nM for the second.

`CC(CC(=O)N1CCCC2C(C(=O)O)CCCC21)c1c[nH]c2cccc(-c3cccs3)c12` (centres unmarked) [Compound 192, 1-{3-[4-(thiophen-2-yl)-1H-indol-3-yl]butanoyl}decahydroquinoline-5-carboxylic acid] and `CC(CC(=O)N1CCCC2C(C(=O)O)CCCC21)c1c[nH]c2cccc(-c3ccco3)c12` (centres unmarked) [Compound 215, 1-{3-[4-(furan-2-yl)-1H-indol-3-yl]butanoyl}decahydroquinoline-5-carboxylic acid] cannot be ordered by IC50: less than 100 nM for the first, less than 100 nM for the second.

First: CC(CC(=O)N1CCCC2C(C(=O)O)CCCC21)c1c[nH]c2cccc(C#N)c12 (centres unmarked) [Compound 197, 1-[3-(4-cyano-1H-indol-3-yl)butanoyl]decahydroquinoline-5-carboxylic acid]
Second: CC(C)c1cccc2[nH]cc(C(C)CC(=O)N3CCCC4C(C(=O)O)CCCC43)c12 (centres unmarked) [Compound 211, 1-{3-[4-(propan-2-yl)-1H-indol-3-yl]butanoyl}decahydroquinoline-5-carboxylic acid]
The IC50 of the first is higher: greater than 250 nM for the first, less than 100 nM for the second. The second is the more potent here.

First: CC(C)Oc1cccc2[nH]cc(C(C)CC(=O)N3CCCC4C(C(=O)O)CCCC43)c12 (centres unmarked) [Compound 201, 1-{3-[4-(propan-2-yloxy)-1H-indol-3-yl]butanoyl}decahydroquinoline-5-carboxylic acid]
Second: CC(C)Oc1cccc2c1c(C(C)CC(=O)N1CCCC3C(C(=O)O)CCCC31)cn2C (centres unmarked) [Compound 208, 1-{3-[1-methyl-4-(propan-2-yloxy)-1H-indol-3-yl]butanoyl}decahydroquinoline-5-carboxylic acid]
The IC50 of the first is lower: less than 100 nM for the first, 100 to 150 nM for the second. The first is the more potent here.

First: Cc1ccc2[nH]cc(C(C)CC(=O)N3CCCC4C(C(=O)O)CCCC43)c2c1Cl (centres unmarked) [Compound 203, 1-[3-(4-chloro-5-methyl-1H-indol-3-yl)butanoyl]decahydroquinoline-5-carboxylic acid]
Second: CC(CC(=O)N1CCCC2C(C(=O)O)CCCC21)c1c[nH]c2cccc(-c3ccco3)c12 (centres unmarked) [Compound 221, 1-{3-[4-(furan-2-yl)-1H-indol-3-yl]butanoyl}decahydroquinoline-5-carboxylic acid]
The IC50 of the first is higher: greater than 250 nM for the first, less than 100 nM for the second. The second is the more potent here.

First: CC(CC(=O)N1CCCC2C(C(=O)O)CCCC21)c1cn(C)c2cccc(C3CC3)c12 (centres unmarked) [Compound 204, 1-[3-(4-cyclopropyl-1-methyl-1H-indol-3-yl)butanoyl]decahydroquinoline-5-carboxylic acid]
Second: CCn1cc(C(C)CC(=O)N2CCCC3C(C(=O)O)CCCC32)c2c(C3CC3)cccc21 (centres unmarked) [Compound 210, 1-[3-(4-cyclopropyl-1-ethyl-1H-indol-3-yl)butanoyl]decahydroquinoline-5-carboxylic acid]
The IC50 of the first is lower: less than 100 nM for the first, 100 to 150 nM for the second. The first is the more potent here.

First: CC(CC(=O)N1CCCC2C(C(=O)O)CCCC21)c1c[nH]c2nccc(C3CC3)c12 (centres unmarked) [Compound 205, 1-[3-(4-cyclopropyl-1H-pyrrolo[2,3-b]pyridin-3-yl)butanoyl]decahydroquinoline-5-carboxylic acid]
Second: CC(CC(=O)N1CCCC2CC(C(=O)O)CCC21)c1c[nH]c2cccc(C3CC3)c12 (centres unmarked) [Compound 217, 1-[3-(4-cyclopropyl-1H-indol-3-yl)butanoyl]decahydroquinoline-6-carboxylic acid]
The IC50 of the first is higher: greater than 250 nM for the first, 100 to 150 nM for the second. The second is the more potent here.

Compared with `O=C(O)C1CCCC2C1CCCN2C(=O)CC(c1cccs1)c1c[nH]c2cccc(Cl)c12` (centres unmarked) [Compound 206, 1-[3-(4-chloro-1H-indol-3-yl)-3-(thiophen-2-yl)propanoyl]decahydroquinoline-5-carboxylic acid], `CC(CC(=O)N1CCCC2C(C(=O)O)CCCC21)c1c[nH]c2cccc(-c3ccco3)c12` (centres unmarked) [Compound 222, 1-{3-[4-(furan-2-yl)-1H-indol-3-yl]butanoyl}decahydroquinoline-5-carboxylic acid] is higher in IC50: less than 100 nM for the first, 100 to 150 nM for the second. The first is the more potent here.

First: CC(CC(=O)N1CCCC2C(C(=O)O)CCCC21)c1cn(C)c2cccc(Cl)c12 (centres unmarked) [Compound 209, 1-[3-(4-chloro-1-methyl-1H-indol-3-yl)butanoyl]decahydroquinoline-5-carboxylic acid]
Second: CC(CC(=O)N1CCCC2C(C(=O)O)CCCC21)c1cn(C)c2cccc(-c3ccco3)c12 (centres unmarked) [Compound 216, 1-{3-[4-(furan-2-yl)-1-methyl-1H-indol-3-yl]butanoyl}decahydroquinoline-5-carboxylic acid]
The IC50 of the first is higher: 150 to 200 nM for the first, less than 100 nM for the second. The second is the more potent here.

Molecule `CC(CC(=O)N1CCC(C(=O)O)C2CCCCC21)c1c[nH]c2cccc(-c3ccco3)c12` (centres unmarked) [Compound 227, 1-{3-[4-(furan-2-yl)-1H-indol-3-yl]butanoyl}decahydroquinoline-4-carboxylic acid] has an IC50 greater than 250 nM.
